Measurements reported in the kinase profiling compilation of Christmann-Franck et al. (2016).

Legend:
Assay in all cases: radiometric filter-binding kinase assay
[1] = tested on: RPS6KB1 (human), P23443 [T412E]
IKBKB (human) = IKBKB (human) (UniProt O14920); conditions: compound 0.01 µM
IKBKE (human) = IKBKE (human) (UniProt Q14164)
PLK1 (human) = PLK1 (human) (UniProt P53350)
MAPK1 (human) = MAPK1 (human) (UniProt P28482)
MKNK2 (human) = MKNK2 (human) (UniProt Q9HBH9)
CSK (human) = CSK (human) (UniProt P41240)
RPS6KA1 KD1 KD2 (human) = RPS6KA1 KD1 KD2 (human) (UniProt Q15418)
EPHB1 (human) = EPHB1 (human) (UniProt P54762)
Chain of EPHB1 (human) (P54762 whole entry, looked up): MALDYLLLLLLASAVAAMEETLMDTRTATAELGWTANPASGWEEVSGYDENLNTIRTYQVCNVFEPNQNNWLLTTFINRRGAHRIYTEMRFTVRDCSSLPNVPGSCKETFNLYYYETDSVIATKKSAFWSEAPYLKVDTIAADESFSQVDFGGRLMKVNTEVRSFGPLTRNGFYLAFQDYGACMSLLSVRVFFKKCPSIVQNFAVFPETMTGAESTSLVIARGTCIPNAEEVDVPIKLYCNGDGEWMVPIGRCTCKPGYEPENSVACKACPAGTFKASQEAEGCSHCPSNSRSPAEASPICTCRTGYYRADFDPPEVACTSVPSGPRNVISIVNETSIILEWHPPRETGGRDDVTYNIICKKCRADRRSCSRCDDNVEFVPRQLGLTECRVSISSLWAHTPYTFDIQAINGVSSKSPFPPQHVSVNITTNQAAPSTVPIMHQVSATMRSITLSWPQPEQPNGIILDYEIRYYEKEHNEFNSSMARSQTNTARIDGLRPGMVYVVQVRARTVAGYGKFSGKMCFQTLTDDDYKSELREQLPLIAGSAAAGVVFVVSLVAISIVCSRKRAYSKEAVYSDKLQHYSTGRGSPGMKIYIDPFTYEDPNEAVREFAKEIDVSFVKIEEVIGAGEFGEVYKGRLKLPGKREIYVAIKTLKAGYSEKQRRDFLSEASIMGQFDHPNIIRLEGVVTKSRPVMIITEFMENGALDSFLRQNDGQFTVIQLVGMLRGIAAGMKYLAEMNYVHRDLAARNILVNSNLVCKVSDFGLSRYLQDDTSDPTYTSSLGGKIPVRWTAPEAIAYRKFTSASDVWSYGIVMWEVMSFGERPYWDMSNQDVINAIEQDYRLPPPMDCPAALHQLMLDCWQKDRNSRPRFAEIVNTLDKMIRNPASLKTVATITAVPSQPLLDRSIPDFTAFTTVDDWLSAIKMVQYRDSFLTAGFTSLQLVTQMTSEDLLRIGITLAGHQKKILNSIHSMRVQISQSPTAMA

[2] = tested on: AKT2 (human), P31751 [S474D]
TTK (human) = TTK (human) (UniProt P33981)
PAK7 (human) = PAK7 (human) (UniProt Q9P286)
PRKAA1 or PRKAA2 (rat) = conditions: accession and sequence are those of the human protein
MAPK14 (human) = MAPK14 (human) (UniProt Q16539)
SRC (human) = SRC (human) (UniProt P12931)
Chain of SRC (human) (P12931 whole entry, looked up): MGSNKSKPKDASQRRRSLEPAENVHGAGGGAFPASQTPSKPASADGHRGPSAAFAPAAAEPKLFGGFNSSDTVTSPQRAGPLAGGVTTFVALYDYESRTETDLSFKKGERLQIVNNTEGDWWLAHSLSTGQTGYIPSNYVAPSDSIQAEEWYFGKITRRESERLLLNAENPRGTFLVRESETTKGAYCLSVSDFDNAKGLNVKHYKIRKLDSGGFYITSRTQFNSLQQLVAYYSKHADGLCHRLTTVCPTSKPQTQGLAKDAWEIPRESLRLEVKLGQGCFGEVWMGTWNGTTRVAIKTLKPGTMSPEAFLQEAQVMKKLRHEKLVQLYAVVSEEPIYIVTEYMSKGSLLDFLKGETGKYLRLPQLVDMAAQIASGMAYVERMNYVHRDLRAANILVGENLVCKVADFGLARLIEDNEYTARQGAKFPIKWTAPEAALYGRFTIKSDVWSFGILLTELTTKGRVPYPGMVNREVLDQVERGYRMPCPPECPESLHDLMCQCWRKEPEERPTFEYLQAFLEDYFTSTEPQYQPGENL

MAPK3 (human) = MAPK3 (human) (UniProt P27361)
RPS6KA3 KD1 KD2 (human) = RPS6KA3 KD1 KD2 (human) (UniProt P51812)
SYK (human) = SYK (human) (UniProt P43405)
PIM2 (human) = PIM2 (human) (UniProt Q9P1W9)
MAPK15 (human) = MAPK15 (human) (UniProt Q8TD08)
Chain of MAPK15 (human) (Q8TD08 whole entry, looked up): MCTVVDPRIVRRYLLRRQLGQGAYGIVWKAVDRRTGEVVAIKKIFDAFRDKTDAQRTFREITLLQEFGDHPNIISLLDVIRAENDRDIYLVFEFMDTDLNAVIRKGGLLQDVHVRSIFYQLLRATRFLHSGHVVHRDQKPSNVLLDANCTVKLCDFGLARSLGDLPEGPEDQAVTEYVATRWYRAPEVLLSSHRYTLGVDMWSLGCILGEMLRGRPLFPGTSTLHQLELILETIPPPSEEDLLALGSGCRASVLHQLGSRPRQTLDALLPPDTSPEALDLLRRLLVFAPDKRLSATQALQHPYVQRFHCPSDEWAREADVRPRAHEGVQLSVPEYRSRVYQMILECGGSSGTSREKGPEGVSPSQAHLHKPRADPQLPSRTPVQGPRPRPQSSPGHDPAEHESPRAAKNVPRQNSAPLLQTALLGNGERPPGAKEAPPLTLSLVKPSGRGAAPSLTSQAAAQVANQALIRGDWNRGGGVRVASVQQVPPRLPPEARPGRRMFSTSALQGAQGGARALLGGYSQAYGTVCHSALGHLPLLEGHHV

NEK2 (human) = NEK2 (human) (UniProt P51955)
Chain of NEK2 (human) (P51955 whole entry, looked up): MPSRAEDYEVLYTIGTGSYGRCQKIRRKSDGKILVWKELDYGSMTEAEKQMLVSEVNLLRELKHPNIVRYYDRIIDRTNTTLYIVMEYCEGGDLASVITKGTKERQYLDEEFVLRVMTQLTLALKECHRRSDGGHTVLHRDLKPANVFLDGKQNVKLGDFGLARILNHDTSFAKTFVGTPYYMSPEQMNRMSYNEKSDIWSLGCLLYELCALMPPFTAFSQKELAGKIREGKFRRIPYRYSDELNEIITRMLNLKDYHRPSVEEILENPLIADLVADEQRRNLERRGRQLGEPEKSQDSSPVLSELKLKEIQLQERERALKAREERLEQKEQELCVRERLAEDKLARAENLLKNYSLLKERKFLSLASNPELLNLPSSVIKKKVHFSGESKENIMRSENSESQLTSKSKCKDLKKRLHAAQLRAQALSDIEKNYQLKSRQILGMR

MAP2K1 (human) = MAP2K1 (human) (UniProt Q02750)
FLT1 (human) = FLT1 (human) (UniProt P17948)
NEK6 (human) = NEK6 (human) (UniProt Q9HC98)
Chain of NEK6 (human) (Q9HC98 whole entry, looked up): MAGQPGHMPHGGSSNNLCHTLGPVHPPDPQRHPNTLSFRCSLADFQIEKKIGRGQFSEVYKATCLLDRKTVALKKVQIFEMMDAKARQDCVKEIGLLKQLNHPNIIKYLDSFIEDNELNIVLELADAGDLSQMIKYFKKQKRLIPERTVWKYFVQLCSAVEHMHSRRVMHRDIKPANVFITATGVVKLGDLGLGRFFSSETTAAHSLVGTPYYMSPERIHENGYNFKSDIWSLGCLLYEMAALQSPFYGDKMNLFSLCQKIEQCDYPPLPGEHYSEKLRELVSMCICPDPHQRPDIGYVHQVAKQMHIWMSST

INSRR (human) = INSRR (human) (UniProt P14616)
PRKACA (human) = PRKACA (human) (UniProt P17612)
EPHB4 (human) = EPHB4 (human) (UniProt P54760)
EPHA4 (human) = EPHA4 (human) (UniProt P54764)
BTK (human) = BTK (human) (UniProt Q06187)
Chain of BTK (human) (Q06187 whole entry, looked up): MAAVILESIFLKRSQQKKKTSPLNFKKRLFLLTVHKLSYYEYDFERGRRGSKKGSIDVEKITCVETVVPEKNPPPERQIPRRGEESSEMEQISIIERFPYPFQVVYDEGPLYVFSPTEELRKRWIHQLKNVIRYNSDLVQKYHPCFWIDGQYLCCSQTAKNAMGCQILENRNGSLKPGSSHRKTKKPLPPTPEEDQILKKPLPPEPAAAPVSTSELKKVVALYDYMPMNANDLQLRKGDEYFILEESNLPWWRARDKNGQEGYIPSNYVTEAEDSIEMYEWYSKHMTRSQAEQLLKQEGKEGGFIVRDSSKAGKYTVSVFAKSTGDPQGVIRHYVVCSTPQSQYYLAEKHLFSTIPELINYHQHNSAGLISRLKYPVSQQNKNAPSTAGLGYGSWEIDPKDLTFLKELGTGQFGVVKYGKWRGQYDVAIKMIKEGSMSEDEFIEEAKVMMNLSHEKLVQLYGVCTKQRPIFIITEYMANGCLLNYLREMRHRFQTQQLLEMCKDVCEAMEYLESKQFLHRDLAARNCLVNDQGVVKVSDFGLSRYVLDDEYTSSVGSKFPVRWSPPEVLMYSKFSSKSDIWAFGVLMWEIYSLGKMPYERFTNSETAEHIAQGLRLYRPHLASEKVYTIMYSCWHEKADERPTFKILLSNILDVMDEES

RIPK2 (human) = RIPK2 (human) (UniProt O43353)
Chain of RIPK2 (human) (O43353 whole entry, looked up): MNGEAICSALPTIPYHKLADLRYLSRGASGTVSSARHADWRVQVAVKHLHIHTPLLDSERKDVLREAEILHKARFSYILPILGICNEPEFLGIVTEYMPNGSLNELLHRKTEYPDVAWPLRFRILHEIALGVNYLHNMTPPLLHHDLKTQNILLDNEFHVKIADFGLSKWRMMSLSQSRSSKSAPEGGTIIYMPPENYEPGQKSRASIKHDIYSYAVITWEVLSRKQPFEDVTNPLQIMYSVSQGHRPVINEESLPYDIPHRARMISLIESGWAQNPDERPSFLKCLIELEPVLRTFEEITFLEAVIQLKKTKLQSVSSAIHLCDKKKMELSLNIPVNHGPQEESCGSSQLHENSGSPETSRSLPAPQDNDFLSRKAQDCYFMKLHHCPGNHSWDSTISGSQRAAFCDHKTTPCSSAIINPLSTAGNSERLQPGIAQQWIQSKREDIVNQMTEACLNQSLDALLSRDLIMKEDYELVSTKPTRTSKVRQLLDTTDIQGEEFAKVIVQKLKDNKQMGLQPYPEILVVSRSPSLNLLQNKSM

CHEK2 (human) = CHEK2 (human) (UniProt O96017)
CSNK1D (human) = CSNK1D (human) (UniProt P48730)
Chain of CSNK1D (human) (P48730 whole entry, looked up): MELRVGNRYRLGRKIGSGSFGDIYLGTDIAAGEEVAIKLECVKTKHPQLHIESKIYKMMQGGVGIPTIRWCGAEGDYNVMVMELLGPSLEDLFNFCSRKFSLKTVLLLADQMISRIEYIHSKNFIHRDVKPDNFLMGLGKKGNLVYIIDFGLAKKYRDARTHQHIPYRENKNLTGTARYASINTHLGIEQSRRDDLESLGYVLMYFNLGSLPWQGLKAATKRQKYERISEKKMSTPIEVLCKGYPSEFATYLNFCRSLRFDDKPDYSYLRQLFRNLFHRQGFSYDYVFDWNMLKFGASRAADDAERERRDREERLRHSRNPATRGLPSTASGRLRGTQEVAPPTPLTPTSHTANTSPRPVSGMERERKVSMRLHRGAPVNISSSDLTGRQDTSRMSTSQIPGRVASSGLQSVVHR

CDK2 CCNA2 (human) = CDK2 CCNA2 (human) (UniProt P20248+P24941)
MAPKAPK3 (human) = MAPKAPK3 (human) (UniProt Q16644)
RPS6KA5 KD1 KD2 (human) = RPS6KA5 KD1 KD2 (human) (UniProt O75582)

Chain of MAPK1 (human) (P28482 whole entry, looked up): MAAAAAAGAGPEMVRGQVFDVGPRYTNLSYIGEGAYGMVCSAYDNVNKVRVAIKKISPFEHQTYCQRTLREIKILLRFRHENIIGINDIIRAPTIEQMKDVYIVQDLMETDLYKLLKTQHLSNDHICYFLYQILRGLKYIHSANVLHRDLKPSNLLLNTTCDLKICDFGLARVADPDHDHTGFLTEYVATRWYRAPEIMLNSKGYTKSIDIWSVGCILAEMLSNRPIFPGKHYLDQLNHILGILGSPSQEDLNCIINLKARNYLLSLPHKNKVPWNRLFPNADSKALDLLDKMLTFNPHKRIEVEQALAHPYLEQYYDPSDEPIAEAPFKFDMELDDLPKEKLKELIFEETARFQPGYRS

What does the source list for `O=C(Nc1nc2cc(C(F)(F)F)cc(NC3CC3)n2n1)c1cccnc1`?
residual activity ([1]; compound 0.01 µM): 125%; residual activity ([1]; compound 0.1 µM): 104%; residual activity ([1]; compound 1.0 µM): 103%; residual activity (IKBKB (human)): 79%; residual activity (IKBKE (human); compound 0.01 µM): 114%; residual activity (IKBKE (human); compound 0.1 µM): 106%; residual activity (IKBKE (human); compound 1.0 µM): 96%; residual activity (PLK1 (human); compound 0.01 µM): 104%; residual activity (PLK1 (human); compound 0.1 µM): 128%; residual activity (PLK1 (human); compound 1.0 µM): 103%; residual activity (MAPK1 (human); compound 0.01 µM): 92%; residual activity (MAPK1 (human); compound 0.1 µM): 96%; residual activity (MAPK1 (human); compound 1.0 µM): 102%; residual activity (MKNK2 (human); compound 0.01 µM): 95%; residual activity (MKNK2 (human); compound 1.0 µM): 91%; residual activity (CSK (human); compound 0.01 µM): 96%; residual activity (CSK (human); compound 0.1 µM): 95%; residual activity (CSK (human); compound 1.0 µM): 89%; residual activity (RPS6KA1 KD1 KD2 (human); compound 0.01 µM): 99%; residual activity (RPS6KA1 KD1 KD2 (human); compound 0.1 µM): 102%; residual activity (RPS6KA1 KD1 KD2 (human); compound 1.0 µM): 65%; residual activity (EPHB1 (human); compound 0.01 µM): 106%; residual activity (EPHB1 (human); compound 0.1 µM): 120%; residual activity (EPHB1 (human); compound 1.0 µM): 94%; residual activity ([2]; compound 0.01 µM): 97%; residual activity ([2]; compound 0.1 µM): 103%; residual activity ([2]; compound 1.0 µM): 94%; residual activity (TTK (human); compound 0.01 µM): 93%; residual activity (TTK (human); compound 0.1 µM): 99%; residual activity (TTK (human); compound 1.0 µM): 96%; residual activity (PAK7 (human); compound 0.01 µM): 97%; residual activity (PAK7 (human); compound 0.1 µM): 114%; residual activity (PAK7 (human); compound 1.0 µM): 91%; residual activity (PRKAA1 or PRKAA2 (rat); compound 0.01 µM): 108%; residual activity (PRKAA1 or PRKAA2 (rat); compound 0.1 µM): 93%; residual activity (PRKAA1 or PRKAA2 (rat); compound 1.0 µM): 108%; residual activity (MAPK14 (human); compound 0.01 µM): 109%; residual activity (MAPK14 (human); compound 0.1 µM): 121%; residual activity (MAPK14 (human); compound 1.0 µM): 114%; residual activity (SRC (human); compound 0.01 µM): 100%; residual activity (SRC (human); compound 0.1 µM): 107%; residual activity (SRC (human); compound 1.0 µM): 102%; residual activity (MAPK3 (human); compound 0.01 µM): 120%; residual activity (MAPK3 (human); compound 0.1 µM): 127%; residual activity (MAPK3 (human); compound 1.0 µM): 116%; residual activity (RPS6KA3 KD1 KD2 (human); compound 0.01 µM): 112%; residual activity (RPS6KA3 KD1 KD2 (human); compound 0.1 µM): 106%; residual activity (RPS6KA3 KD1 KD2 (human); compound 1.0 µM): 89%; residual activity (SYK (human); compound 0.01 µM): 107%; residual activity (SYK (human); compound 0.1 µM): 99%; residual activity (PIM2 (human); compound 0.01 µM): 106%; residual activity (PIM2 (human); compound 0.1 µM): 109%; residual activity (PIM2 (human); compound 1.0 µM): 108%; residual activity (MAPK15 (human); compound 0.01 µM): 102%; residual activity (MAPK15 (human); compound 0.1 µM): 110%; residual activity (MAPK15 (human); compound 1.0 µM): 102%; residual activity (NEK2 (human); compound 0.01 µM): 97%; residual activity (NEK2 (human); compound 0.1 µM): 97%; residual activity (NEK2 (human); compound 1.0 µM): 96%; residual activity (MAP2K1 (human); compound 0.01 µM): 72%; residual activity (MAP2K1 (human); compound 0.1 µM): 76%; residual activity (MAP2K1 (human); compound 1.0 µM): 61%; residual activity (FLT1 (human); compound 0.01 µM): 109%; residual activity (FLT1 (human); compound 0.1 µM): 88%; residual activity (FLT1 (human); compound 1.0 µM): 108%; residual activity (NEK6 (human); compound 0.01 µM): 114%; residual activity (NEK6 (human); compound 0.1 µM): 113%; residual activity (NEK6 (human); compound 1.0 µM): 101%; residual activity (INSRR (human); compound 0.01 µM): 91%; residual activity (INSRR (human); compound 0.1 µM): 104%; residual activity (INSRR (human); compound 1.0 µM): 94%; residual activity (PRKACA (human); compound 0.01 µM): 98%; residual activity (PRKACA (human); compound 0.1 µM): 99%; residual activity (PRKACA (human); compound 1.0 µM): 88%; residual activity (EPHB4 (human); compound 0.01 µM): 106%; residual activity (EPHB4 (human); compound 0.1 µM): 104%; residual activity (EPHB4 (human); compound 1.0 µM): 96%; residual activity (EPHA4 (human); compound 0.01 µM): 101%; residual activity (EPHA4 (human); compound 0.1 µM): 124%; residual activity (EPHA4 (human); compound 1.0 µM): 93%; residual activity (BTK (human); compound 0.01 µM): 108%; residual activity (BTK (human); compound 0.1 µM): 103%; residual activity (BTK (human); compound 1.0 µM): 101%; residual activity (RIPK2 (human); compound 0.01 µM): 89%; residual activity (RIPK2 (human); compound 0.1 µM): 87%; residual activity (RIPK2 (human); compound 1.0 µM): 89%; residual activity (CHEK2 (human); compound 0.01 µM): 93%; residual activity (CHEK2 (human); compound 0.1 µM): 114%; residual activity (CHEK2 (human); compound 1.0 µM): 89%; residual activity (CSNK1D (human); compound 0.01 µM): 92%; residual activity (CSNK1D (human); compound 0.1 µM): 93%; residual activity (CSNK1D (human); compound 1.0 µM): 59%; residual activity (CDK2 CCNA2 (human); compound 0.01 µM): 95%; residual activity (CDK2 CCNA2 (human); compound 0.1 µM): 98%; residual activity (CDK2 CCNA2 (human); compound 1.0 µM): 85%; residual activity (MAPKAPK3 (human); compound 0.01 µM): 97%; residual activity (MAPKAPK3 (human); compound 0.1 µM): 114%; residual activity (MAPKAPK3 (human); compound 1.0 µM): 97%; residual activity (RPS6KA5 KD1 KD2 (human); compound 0.01 µM): 114%; residual activity (RPS6KA5 KD1 KD2 (human); compound 0.1 µM): 114%; residual activity (RPS6KA5 KD1 KD2 (human); compound 1.0 µM): 95%
